Laboratory results: publication PMC7859440, “Transporter Gene Regulation in Sandwich Cultured Human Hepatocytes Through the Activation of Constitutive Androstane Receptor (CAR) or Aryl Hydrocarbon Receptor (AhR)” (Frontiers in Pharmacology, 2021)
“And” between values parts separate entries of the source, which are not always exact repeats. Equal entries are not always repeated.

Assays:
CYP1A2 = conditions: SCHH, 72 h; TCDD 50 nM, OP 50 µM, CITCO 5 µM, PB 1,000 µM (highest conc.); mean ± SD, three donors
Method: (§1) Cryopreserved human hepatocytes were quickly thawed at 37°C and then transferred into hepatocyte thawing medium. Cells were pelleted at 100 × g for 10 min and then resuspended in hepatocyte complete plating medium (CP medium). The cells were then seeded at 65,000 cells per well in 96-well collagen I coated plates. After cell attachment (4–6 h post-seeding), CP medium was exchanged for ice-cold complete incubation medium (HI medium) containing BD Matrigel™ at the concentration of 0.25 mg/ml. The cells were then incubated overnight at 37°C in a humidified 5% CO2 incubator. […] Cell death or loss of adhesion of hepatocytes during or after treatment were examined by microscopy.
A RNeasy 96 Kit (Qiagen) was used to extract the total cellular RNA from sandwich cultured hepatocytes in 96-well plates following the manufacturer's instructions. A total volume of 200 μL RNA was obtained via the column elution provided in the RNeasy kit. […] Gene expression for each condition is expressed as a fold-change of mean ± standard deviation (SD) from three independent donors (each performed in triplicate). […]

CYP2B6 = assay: in vitro; conditions: human
Method: as §1
(§2) A RNeasy 96 Kit (Qiagen) was used to extract the total cellular RNA from sandwich cultured hepatocytes in 96-well plates following the manufacturer's instructions. A total volume of 200 μL RNA was obtained via the column elution provided in the RNeasy kit. Five μL RNA extraction was mixed with TaqMan® Fast Virus 1-Step Master Mix (Life Technologies) in a final reaction volume of 20 μL and qRT-PCR was achieved using a QuantStudio 6 Flex Real-Time PCR System (Life Technologies), following the manufacturer's instructions. β-actin mRNA expression in the SCHH was used as a house-keeping gene for the normalization of target gene expressions. The mRNA levels in SCHH treated with AhR or CAR activators were expressed by a fold change, compared to the gene expressions without the treatment. […] Gene expression for each condition is expressed as a fold-change of mean ± standard deviation (SD) from three independent donors (each performed in triplicate). All primer and probe sets were purchased from Life Technologies (Table 2). When concentration-dependent induction observed, the in vitro induction mRNA data were fitted using the sigmoid 3-parameter equation in GraphPad Prism (La Jolla, CA) to estimate the in vitro concentration of inducer that produced half the maximum induction values (EC50).

CYP3A4 = assay: in vitro; conditions: human
Method: as §1, §2

UGT1A1 = assay: gene induction in sandwich-cultured human hepatocytes (qRT-PCR)
Method: as §1
(§3) A RNeasy 96 Kit (Qiagen) was used to extract the total cellular RNA from sandwich cultured hepatocytes in 96-well plates following the manufacturer's instructions. A total volume of 200 μL RNA was obtained via the column elution provided in the RNeasy kit. Five μL RNA extraction was mixed with TaqMan® Fast Virus 1-Step Master Mix (Life Technologies) in a final reaction volume of 20 μL and qRT-PCR was achieved using a QuantStudio 6 Flex Real-Time PCR System (Life Technologies), following the manufacturer's instructions. β-actin mRNA expression in the SCHH was used as a house-keeping gene for the normalization of target gene expressions. The mRNA levels in SCHH treated with AhR or CAR activators were expressed by a fold change, compared to the gene expressions without the treatment. The 2^−ΔΔCt method ([Livak and Schmittgen, 2001]) was used to analyze the relative changes in gene expression, where the Ct is the cycle number at which the fluorescence in the reaction crosses the preset arbitrary threshold; the ΔCt represents the difference between the Ct target and reference and the ΔΔCt is the difference between the ΔCt of the test and the ΔCt of the preassigned control. Gene expression for each condition is expressed as a fold-change of mean ± standard deviation (SD) from three independent donors (each performed in triplicate). All primer and probe sets were purchased from Life Technologies (Table 2). When concentration-dependent induction observed, the in vitro induction mRNA data were fitted using the sigmoid 3-parameter equation in GraphPad Prism (La Jolla, CA) to estimate the in vitro concentration of inducer that produced half the maximum induction values (EC50).

ABCB1 (MDR1) = assay: as above; assay type: cell-based
Method: as §1, §3

ABCB11 (BSEP) = assay: as above; assay type: cell-based
Method: as §1, §3

ABCC2 (MRP2) = assay: as above; assay type: cell-based
Method: as §1, §3

ABCC3 (MRP3) = assay: as above; assay type: cell-based
Method: as §1, §3

ABCC4 (MRP4) = assay: as above; assay type: cell-based
Method: as §1, §3

ABCC5 (MRP5) = assay: as above; assay type: cell-based
Method: as §1, §3

ABCC6 (MRP6) = assay: as above; assay type: cell-based
Method: as §1, §3

ABCG2 (BCRP) = assay: as above; assay type: cell-based
Method: as §1, §3

SLC22A1 (OCT1) = assay: as above; assay type: cell-based
Method: as §1, §3

SLCO1B1 (OATP1B1) = assay: as above; assay type: cell-based
Method: as §1, §3

SLCO1B3 (OATP1B3) = assay: as above; assay type: cell-based
Method: as §1, §3

SLCO2B1 (OATP2B1) = assay: as above; assay type: cell-based
Method: as §1, §3

SLC10A1 (NTCP) = assay: as above; assay type: cell-based; conditions: SCHH, 72 h; TCDD 50 nM, OP 50 µM, CITCO 5 µM, PB 1,000 µM (highest conc.); mean ± SD, three donors
Method: A RNeasy 96 Kit (Qiagen) was used to extract the total cellular RNA from sandwich cultured hepatocytes in 96-well plates following the manufacturer's instructions. A total volume of 200 μL RNA was obtained via the column elution provided in the RNeasy kit. Five μL RNA extraction was mixed with TaqMan® Fast Virus 1-Step Master Mix (Life Technologies) in a final reaction volume of 20 μL and qRT-PCR was achieved using a QuantStudio 6 Flex Real-Time PCR System (Life Technologies), following the manufacturer's instructions. β-actin mRNA expression in the SCHH was used as a house-keeping gene for the normalization of target gene expressions. The mRNA levels in SCHH treated with AhR or CAR activators were expressed by a fold change, compared to the gene expressions without the treatment. The 2^−ΔΔCt method ([Livak and Schmittgen, 2001]) was used to analyze the relative changes in gene expression, where the Ct is the cycle number at which the fluorescence in the reaction crosses the preset arbitrary threshold; the ΔCt represents the difference between the Ct target and reference and the ΔΔCt is the difference between the ΔCt of the test and the ΔCt of the preassigned control. Gene expression for each condition is expressed as a fold-change of mean ± standard deviation (SD) from three independent donors (each performed in triplicate). […] When concentration-dependent induction observed, the in vitro induction mRNA data were fitted using the sigmoid 3-parameter equation in GraphPad Prism (La Jolla, CA) to estimate the in vitro concentration of inducer that produced half the maximum induction values (EC50).

SLC15A1 (PEPT1) = assay: as above; assay type: cell-based; conditions: SCHH, 72 h; TCDD 50 nM, OP 50 µM, CITCO 5 µM, PB 1,000 µM (highest conc.); mean ± SD, three donors
Description: (§4) A RNeasy 96 Kit (Qiagen) was used to extract the total cellular RNA from sandwich cultured hepatocytes in 96-well plates following the manufacturer's instructions. […] The 2^−ΔΔCt method ([Livak and Schmittgen, 2001]) was used to analyze the relative changes in gene expression, where the Ct is the cycle number at which the fluorescence in the reaction crosses the preset arbitrary threshold; the ΔCt represents the difference between the Ct target and reference and the ΔΔCt is the difference between the ΔCt of the test and the ΔCt of the preassigned control. Gene expression for each condition is expressed as a fold-change of mean ± standard deviation (SD) from three independent donors (each performed in triplicate). […]

SLC16A1 (MCT1) = assay: as above; assay type: cell-based; conditions: SCHH, 72 h; TCDD 50 nM, OP 50 µM, CITCO 5 µM, PB 1,000 µM (highest conc.); mean ± SD, three donors
Description: as §4

SLC22A7 (OAT2) = assay: as above; assay type: cell-based; conditions: SCHH, 72 h; TCDD 50 nM, OP 50 µM, CITCO 5 µM, PB 1,000 µM (highest conc.); mean ± SD, three donors
Description: as §4

SLC22A9 (OAT7) = assay: as above; assay type: cell-based; conditions: SCHH, 72 h; TCDD 50 nM, OP 50 µM, CITCO 5 µM, PB 1,000 µM (highest conc.); mean ± SD, three donors
Description: as §4

SLC22A5 (OCTN2) = assay: as above; assay type: cell-based; conditions: SCHH, 72 h; TCDD 50 nM, OP 50 µM, CITCO 5 µM, PB 1,000 µM (highest conc.); mean ± SD, three donors
Description: as §4

SLC29A1 (ENT1) = assay: as above; assay type: cell-based; conditions: SCHH, 72 h; TCDD 50 nM, OP 50 µM, CITCO 5 µM, PB 1,000 µM (highest conc.); mean ± SD, three donors
Description: as §4

SLC29A2 (ENT2) = assay: as above; assay type: cell-based; conditions: SCHH, 72 h; TCDD 50 nM, OP 50 µM, CITCO 5 µM, PB 1,000 µM (highest conc.); mean ± SD, three donors
Description: as §4

SLC51A (OSTα) = assay: as above; assay type: cell-based; conditions: SCHH, 72 h; TCDD 50 nM, OP 50 µM, CITCO 5 µM, PB 1,000 µM (highest conc.); mean ± SD, three donors
Description: as §4

For CCC1(c2ccccc2)C(=O)NC(=O)NC1=O [PB, phenobarbital], the “CYP1A2 mRNA fold change” value (CYP1A2) was 1.3 ± 0.4 fold, the EC50 at 72 h (CYP2B6) was 726 ± 655 µM and the EC50 (CYP3A4) was 343 µM. For the same compound, the “UGT1A1 mRNA fold change” value (UGT1A1) was 4.2 fold and 4.2 ± 1.9 fold, the EC50 (UGT1A1; human) was 639 ± 444 µM and the “ABCB1 (MDR1) mRNA fold change” value (ABCB1 (MDR1)) was 1.3 ± 0.6 fold. For the same compound, the “ABCB11 (BSEP) mRNA fold change” value (ABCB11 (BSEP)) was 1.1 ± 0.3 fold, the “ABCC2 (MRP2) mRNA fold change” value (ABCC2 (MRP2)) was 1.5 ± 0.3 fold and the “ABCC3 (MRP3) mRNA fold change” value (ABCC3 (MRP3)) was 1.0 ± 0.4 fold. For the same compound, the “ABCC4 (MRP4) mRNA fold change” value (ABCC4 (MRP4)) was 1.8 ± 0.4 fold, the “ABCC5 (MRP5) mRNA fold change” value (ABCC5 (MRP5)) was 1.2 ± 0.4 fold and the “ABCC6 (MRP6) mRNA fold change” value (ABCC6 (MRP6)) was 1.3 ± 0.3 fold. The “ABCG2 (BCRP) mRNA fold change” value (ABCG2 (BCRP)) was 1.6 ± 0.3 fold, the “SLC22A1 (OCT1) mRNA fold change” value (SLC22A1 (OCT1)) was 1.5 ± 0.6 fold and the “SLCO1B1 (OATP1B1) mRNA fold change” value (SLCO1B1 (OATP1B1)) was 1.5 ± 0.8 fold. The “SLCO1B3 (OATP1B3) mRNA fold change” value (SLCO1B3 (OATP1B3)) was 0.9 ± 0.2 fold, the “SLCO2B1 (OATP2B1) mRNA fold change” value (SLCO2B1 (OATP2B1)) was 1.8 ± 0.9 fold and the “SLC10A1 (NTCP) mRNA fold change” value (SLC10A1 (NTCP)) was 1.4 ± 0.7 fold. The “SLC15A1 (PEPT1) mRNA fold change” value (SLC15A1 (PEPT1)) was 1.1 ± 0.5 fold, the “SLC16A1 (MCT1) mRNA fold change” value (SLC16A1 (MCT1)) was 1.1 ± 0.2 fold and the “SLC22A7 (OAT2) mRNA fold change” value (SLC22A7 (OAT2)) was 0.5 ± 0.2 fold. The “SLC22A9 (OAT7) mRNA fold change” value (SLC22A9 (OAT7)) was 0.6 ± 0.2 fold, the “SLC22A5 (OCTN2) mRNA fold change” value (SLC22A5 (OCTN2)) was 0.8 ± 0.3 fold and the “SLC29A1 (ENT1) mRNA fold change” value (SLC29A1 (ENT1)) was 0.9 ± 0.2 fold. For the same compound, the “SLC29A2 (ENT2) mRNA fold change” value (SLC29A2 (ENT2)) was 0.9 ± 0.3 fold and the “SLC51A (OSTα) mRNA fold change” value (SLC51A (OSTα)) was 0.9 ± 0.2 fold.
